Measured values reported in ChEMBL document CHEMBL1201862, “PubChem BioAssay data set” (2004).
The source made the active and inactive calls. Rule as the data show it, for most assays here: actives have a measured IC50 and inactives only a lower limit.

Legend:
[1] = target: T1, Tyrosine-protein phosphatase non-receptor type 22 (Homo sapiens, UniProt Q9Y2R2); test: LYP (PTPN22) phosphatase inhibitor potency, SAR follow-up, biochemical, pCAP fluorogenic substrate, fluorescence, set 3 (AID 449727); type: functional
T1 sequence (Q9Y2R2 whole entry): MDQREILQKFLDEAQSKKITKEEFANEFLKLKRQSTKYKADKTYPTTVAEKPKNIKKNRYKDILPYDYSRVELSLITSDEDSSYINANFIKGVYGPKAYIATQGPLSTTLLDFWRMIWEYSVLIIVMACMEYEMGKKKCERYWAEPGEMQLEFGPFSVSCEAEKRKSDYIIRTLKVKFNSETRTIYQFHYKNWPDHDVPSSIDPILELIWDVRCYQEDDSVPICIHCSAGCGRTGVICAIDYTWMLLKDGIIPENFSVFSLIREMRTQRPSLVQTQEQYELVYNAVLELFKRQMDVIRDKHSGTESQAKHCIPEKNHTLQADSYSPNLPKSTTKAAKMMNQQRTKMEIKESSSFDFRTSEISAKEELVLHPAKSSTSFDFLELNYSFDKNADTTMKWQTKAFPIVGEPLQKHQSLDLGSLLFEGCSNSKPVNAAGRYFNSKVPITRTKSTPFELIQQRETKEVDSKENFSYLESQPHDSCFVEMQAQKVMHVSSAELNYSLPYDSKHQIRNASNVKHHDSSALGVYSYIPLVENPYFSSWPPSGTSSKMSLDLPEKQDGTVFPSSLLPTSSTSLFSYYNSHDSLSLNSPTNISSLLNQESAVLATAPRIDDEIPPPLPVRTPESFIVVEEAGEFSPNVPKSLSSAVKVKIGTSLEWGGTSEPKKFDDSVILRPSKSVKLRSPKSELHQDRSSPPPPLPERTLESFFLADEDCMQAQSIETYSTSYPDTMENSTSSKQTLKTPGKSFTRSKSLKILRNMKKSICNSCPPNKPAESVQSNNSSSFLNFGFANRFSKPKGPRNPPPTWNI

[2] = target: Tyrosine-protein phosphatase non-receptor type 12 (Homo sapiens, UniProt Q05209); test: SAR Selectivity Analysis of small molecule inhibitors of PEST using pCAP in a fluorescence assay. [Related pubchem assays (depositor defined):AID1779, AID1784, AID2135]; type: functional
[3] = target: T2, Tyrosine-protein phosphatase non-receptor type 7 (Homo sapiens, UniProt P35236); test: HePTP (PTPN7) phosphatase inhibitor potency, SAR follow-up, biochemical, set 2 (AID 449736); type: functional
T2 sequence (P35236 whole entry): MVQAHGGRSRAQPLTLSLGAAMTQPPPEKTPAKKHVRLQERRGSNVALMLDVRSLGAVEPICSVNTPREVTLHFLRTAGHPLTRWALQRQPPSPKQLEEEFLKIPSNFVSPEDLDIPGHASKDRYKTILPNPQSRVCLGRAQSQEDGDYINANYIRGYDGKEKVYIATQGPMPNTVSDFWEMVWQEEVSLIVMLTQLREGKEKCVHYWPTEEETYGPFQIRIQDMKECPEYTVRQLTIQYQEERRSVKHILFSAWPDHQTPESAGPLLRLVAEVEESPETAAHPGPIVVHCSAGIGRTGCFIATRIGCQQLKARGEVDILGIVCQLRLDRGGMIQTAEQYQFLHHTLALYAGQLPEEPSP

[4] = target: T1, Tyrosine-protein phosphatase non-receptor type 22; test: SAR LYP1 Fluorescent Assay using OMFP substrate for In Vitro dose response studies - Set 3. [Related pubchem assays (depositor defined):AID1779, AID1784, AID2140, AID2686]; type: functional
[5] = target: Eukaryotic translation initiation factor 4E (Mus musculus, UniProt P63073); test: eIF4E–eIF4G protein interaction inhibitors, dose response, biochemical, TR-FRET (AID 855); type: functional;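 also: potency for disrupting eIF4E binding to eIF4GI seen as loss of FRET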
[6] = target: T3, Hexokinase HKDC1 (Homo sapiens, UniProt Q2TB90); test: HKDC1 hexokinase activators, dose response, biochemical, W721R variant (AID 504730); type: functional
T3 sequence (Q2TB90 whole entry): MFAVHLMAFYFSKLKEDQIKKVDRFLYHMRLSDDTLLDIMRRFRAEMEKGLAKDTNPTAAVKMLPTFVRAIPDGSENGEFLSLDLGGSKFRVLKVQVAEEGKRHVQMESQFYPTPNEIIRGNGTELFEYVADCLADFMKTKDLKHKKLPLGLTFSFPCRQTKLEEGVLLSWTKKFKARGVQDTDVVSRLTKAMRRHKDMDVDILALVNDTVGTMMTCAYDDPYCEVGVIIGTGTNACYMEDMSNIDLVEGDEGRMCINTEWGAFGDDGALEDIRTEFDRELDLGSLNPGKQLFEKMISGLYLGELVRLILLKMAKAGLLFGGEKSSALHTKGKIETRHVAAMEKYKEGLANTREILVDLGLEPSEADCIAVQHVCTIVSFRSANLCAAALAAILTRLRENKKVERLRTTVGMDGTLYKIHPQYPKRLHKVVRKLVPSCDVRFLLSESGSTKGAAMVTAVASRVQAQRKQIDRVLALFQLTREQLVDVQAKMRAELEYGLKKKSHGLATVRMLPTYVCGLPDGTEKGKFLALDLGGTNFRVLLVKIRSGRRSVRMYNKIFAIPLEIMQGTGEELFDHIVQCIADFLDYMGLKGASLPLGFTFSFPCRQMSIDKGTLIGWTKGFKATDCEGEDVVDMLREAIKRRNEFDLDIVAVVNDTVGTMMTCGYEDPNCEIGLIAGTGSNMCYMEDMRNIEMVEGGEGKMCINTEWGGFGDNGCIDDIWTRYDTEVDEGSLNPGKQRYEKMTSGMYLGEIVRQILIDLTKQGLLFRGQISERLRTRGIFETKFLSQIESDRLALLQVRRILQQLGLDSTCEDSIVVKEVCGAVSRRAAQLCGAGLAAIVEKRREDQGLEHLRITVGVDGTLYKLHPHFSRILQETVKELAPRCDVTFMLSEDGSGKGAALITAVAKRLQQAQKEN

[7] = target: DNA dC->dU-editing enzyme APOBEC-3G (Homo sapiens, UniProt Q9HC16); type: functional;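 also: Dose-response counterscreen measuring inhibition of APOBEC3G DNA deaminase activity, run while confirming APOBEC3A inhibitors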
[8] = target: DNA dC->dU-editing enzyme APOBEC-3A (Homo sapiens, UniProt P31941); test: Dose Response confirmation of small molecule APOBEC3A DNA Deaminase Inhibitors via a fluorescence-based single-stranded DNA deaminase assay. [Related pubchem assays (depositor defined):AID493011, AID493024]; type: functional
[9] = target: T4, SUMO-activating enzyme (Homo sapiens, UniProt Q9UBT2); test: SUMOylation inhibitor hit validation, confirmation, SUMOylation inhibitor project, biochemical, AlphaScreen (AID 2018); type: functional
[10] = target: T5, Low molecular weight phosphotyrosine protein phosphatase (Homo sapiens, UniProt P24666); type: functional; details: read-out: IC50_Mean;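 also: Dose-response confirmation assay measuring inhibition of LMPTP enzyme activity by fluorescence intensity read-out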
T5 sequence (P24666 whole entry): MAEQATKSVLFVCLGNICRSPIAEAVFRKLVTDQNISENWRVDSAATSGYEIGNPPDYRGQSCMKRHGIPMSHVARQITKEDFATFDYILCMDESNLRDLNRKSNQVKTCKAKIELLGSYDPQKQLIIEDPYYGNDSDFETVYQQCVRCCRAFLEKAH

[11] = target: T6, Tyrosine-protein phosphatase non-receptor type 5 (Homo sapiens, UniProt P54829); test: STEP phosphatase inhibitors, confirmation, biochemical, fluorescence intensity, uHTS hits (AID 602372); type: functional; details: read-out: IC50_Mean
T6 sequence (P54829 whole entry): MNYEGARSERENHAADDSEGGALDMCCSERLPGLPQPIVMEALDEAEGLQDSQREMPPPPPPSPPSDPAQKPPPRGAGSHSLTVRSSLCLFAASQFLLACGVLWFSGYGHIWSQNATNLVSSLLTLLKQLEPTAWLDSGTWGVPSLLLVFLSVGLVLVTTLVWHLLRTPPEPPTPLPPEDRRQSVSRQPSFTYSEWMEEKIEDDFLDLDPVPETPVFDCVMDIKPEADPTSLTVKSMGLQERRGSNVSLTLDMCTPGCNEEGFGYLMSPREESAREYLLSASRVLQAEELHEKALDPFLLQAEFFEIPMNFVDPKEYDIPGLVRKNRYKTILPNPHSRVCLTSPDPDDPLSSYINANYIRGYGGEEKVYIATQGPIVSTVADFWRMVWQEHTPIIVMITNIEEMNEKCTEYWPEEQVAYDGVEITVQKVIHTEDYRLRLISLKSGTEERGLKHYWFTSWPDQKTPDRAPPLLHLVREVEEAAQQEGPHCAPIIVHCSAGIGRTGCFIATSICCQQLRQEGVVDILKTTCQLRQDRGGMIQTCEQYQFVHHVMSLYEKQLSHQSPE

[12] = target: T7, Tyrosine-protein phosphatase non-receptor type 11 (Homo sapiens, UniProt Q06124); test: SHP2 phosphatase inhibition, dose response, selectivity assay for STEP inhibitor project, biochemical (AID 602367); type: functional; details: read-out: IC50_Mean
T7 sequence (Q06124 whole entry): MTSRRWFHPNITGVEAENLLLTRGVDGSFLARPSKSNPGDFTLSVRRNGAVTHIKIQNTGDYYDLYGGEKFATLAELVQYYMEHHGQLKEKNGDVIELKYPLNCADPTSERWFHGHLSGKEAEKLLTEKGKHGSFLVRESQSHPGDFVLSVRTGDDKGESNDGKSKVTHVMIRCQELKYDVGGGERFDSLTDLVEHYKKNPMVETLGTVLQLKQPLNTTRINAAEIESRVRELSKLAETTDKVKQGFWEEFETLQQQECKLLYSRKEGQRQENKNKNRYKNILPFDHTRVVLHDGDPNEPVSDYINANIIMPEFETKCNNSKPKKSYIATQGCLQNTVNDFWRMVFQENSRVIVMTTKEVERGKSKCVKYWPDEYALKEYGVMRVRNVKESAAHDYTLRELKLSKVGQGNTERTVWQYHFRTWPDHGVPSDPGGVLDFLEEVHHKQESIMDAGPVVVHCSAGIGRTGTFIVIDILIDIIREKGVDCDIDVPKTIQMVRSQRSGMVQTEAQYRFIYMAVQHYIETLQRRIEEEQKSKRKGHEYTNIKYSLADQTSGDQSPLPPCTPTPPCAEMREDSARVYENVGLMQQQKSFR

[13] = target: T8, Carboxy-terminal domain RNA polymerase II polypeptide A small phosphatase 1 (Homo sapiens, UniProt Q9GZU7); test: inhibitors of CTDSP1, concentration-response testing, biochemical assay, absorbance-based, actives from ultra-high-throughput screening (AID 540297); type: functional
T8 sequence (Q9GZU7 whole entry): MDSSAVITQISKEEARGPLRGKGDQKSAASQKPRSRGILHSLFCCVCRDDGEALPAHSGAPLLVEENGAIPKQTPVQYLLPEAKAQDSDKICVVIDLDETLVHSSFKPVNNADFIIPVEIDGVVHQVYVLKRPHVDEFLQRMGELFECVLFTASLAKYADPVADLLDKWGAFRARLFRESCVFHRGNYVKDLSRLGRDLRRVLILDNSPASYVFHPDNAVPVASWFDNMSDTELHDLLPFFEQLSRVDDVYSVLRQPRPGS

[14] = target: T4, SUMO-activating enzyme; test: inhibitors of in vitro SUMOylation cascade, primary screen, biochemical, HTRF, uHTS (AID 2006); type: protein-complex assay
[15] = target: Dual specificity protein phosphatase 3 (Homo sapiens, UniProt P51452); test: VHR phosphatase inhibition, dose response, selectivity assay for STEP inhibitor project, biochemical (AID 602374); type: functional; details: read-out: IC50_Mean
[16] = target: Troponin, cardiac muscle (Homo sapiens, UniProt P19429+P45379+P63316); test: Fluorescence-based biochemical high throughput dose response assay for activators of the calcium sensitivity of cardiac Regulated Thin Filaments (RTF). [Related pubchem assays (depositor defined):AID493008, AID493018, AID504382, AID504383]; type: protein-complex assay
[17] = target: T9, Alkaline phosphatase, tissue-nonspecific isozyme (Homo sapiens, UniProt P05186); test: human TNAP enzyme inhibitors, SAR follow-up, biochemical, luminescent, dose response (AID 1056)
T9 sequence (P05186 whole entry): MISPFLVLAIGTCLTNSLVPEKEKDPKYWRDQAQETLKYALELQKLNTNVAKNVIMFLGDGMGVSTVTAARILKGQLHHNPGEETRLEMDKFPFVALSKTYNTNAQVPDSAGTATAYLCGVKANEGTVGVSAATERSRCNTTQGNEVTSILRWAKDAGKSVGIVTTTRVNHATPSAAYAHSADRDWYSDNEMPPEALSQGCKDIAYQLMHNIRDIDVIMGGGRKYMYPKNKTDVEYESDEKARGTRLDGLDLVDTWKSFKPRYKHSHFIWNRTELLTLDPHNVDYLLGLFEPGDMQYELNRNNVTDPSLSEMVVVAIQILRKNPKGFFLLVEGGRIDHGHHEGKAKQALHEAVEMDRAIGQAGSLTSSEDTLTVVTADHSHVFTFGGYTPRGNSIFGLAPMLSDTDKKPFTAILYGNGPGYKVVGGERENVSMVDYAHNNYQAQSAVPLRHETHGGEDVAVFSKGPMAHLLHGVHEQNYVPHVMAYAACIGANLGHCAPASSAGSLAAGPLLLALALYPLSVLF

[18] = target: Alkaline phosphatase, placental type (Homo sapiens, UniProt P05187); test: PLAP enzyme inhibitors, confirmation, biochemical, luminescence (AID 1512); type: functional
[19] = target: Glyceraldehyde-3-phosphate dehydrogenase (Homo sapiens, UniProt P04406)

COc1ccc(CN2C(=O)/C(=C/c3ccc(-c4ccc(Cl)c(C(=O)O)c4)o3)SC2=S)cc1
IC50 [1]: 8.93 µM (active)
IC50 [2]: 3.13 µM (active)
IC50 [3]: 0.331 µM (active)
IC50 [4]: 44.5 µM (active)
IC50 [5]: 16.4 µM (active)

O=C(COC(=O)c1n[nH]c2ccccc12)c1cccc(Br)c1
EC50 [6]: > 80 µM (inactive)

CSc1ccc(S(=O)(=O)N2CCC(C(=O)NCc3ccccn3)CC2)cc1
IC50 [7]: 13.9 µM (active)
IC50 [8]: 6.18 µM (active)

N=C1S/C(=C\c2ccc(O)cc2)C(=O)N1c1ccc(F)cc1
IC50 [9]: 4.87 µM (active)
IC50 [10]: 32.9 µM (inactive)
IC50 [11]: 14.1 µM (active)
IC50 [12]: 2.2 µM (active)
IC50 [13]: 5.84 µM (active)
IC50 [14]: 23.9 µM (active)
IC50 [15]: 2.29 µM (active)

CC(C)(C)OC(=O)N1CC(O)CC1C(=O)OCC(=O)c1ccc(-c2ccccc2)cc1 (configuration not stated)
IC50 [7]: 2.89 µM (active)
IC50 [8]: 1.79 µM (active)

O=C1c2ccccc2C(Nc2cccnc2)N1Cc1ccccc1Cl (configuration not stated)
EC50 [16]: > 71.5 µM (inactive)

CC(C)(C)C1(C)Oc2cccc(O)c2O1 (configuration not stated)
IC50 [17]: > 100 µM (inactive)
IC50 [18]: > 100 µM (inactive)

CN1CCN(C(=O)c2cc(-c3ccc(Cl)cc3Cl)n[nH]2)CC1
IC50 [19]: > 100 µM (not active)
IC50 [18]: > 100 µM (inactive)
